According to patent publication US8114902B2, “2-aminobutanol compound and use thereof for medical purposes” (Mitsubishi Tanabe Pharma Corporation, priority 2006, dated 2012):

Experiments:
[1] = tested on: mouse peripheral blood lymphocyte count; assay: Evaluation of mouse peripheral blood lymphocyte count-decreasing effect; type: in vivo, male BALB/cAnNCrj mice; settings: intraperitoneal administration in 20% cyclodextrin, blood collected 24 hr after administration, flow cytometer count
Method: Evaluation of Mouse Peripheral Blood Lymphocyte Count-Decreasing Effect
The compound of the present invention was dissolved or suspended in 20% cyclodextrin (manufactured by NIHON SHOKUHIN KAKO CO., LTD.), and intraperitoneally administered to 7- to 10-week-old male BALB/cAnNCrj mice (Charles River Laboratories Japan, Inc.) at a dose of 0.001-10 mg/kg body weight. At 24 hr after the administration of the compound of the present invention, the peripheral blood (about 0.3 ml) was collected using a tuberculin syringe (manufactured by TERUMO CORPORATION) treated with heparin sodium (manufactured by NovoNordisk) from the postcava of the mice under ether anesthesia. The blood (0.1 ml) was hemolyzed in an automatic hemolysis treatment apparatus (TQ-Prep, manufactured by Beckman Instruments•Coulter) and, using a Flow Cytometer (CYTOMICS FC 500, manufactured by Beckman Instruments•Coulter), the lymphocytes were counted by a gating method using the forward and side scattering of the laser beam as an index and Flow-Count™ Fluorospheres (manufactured by Beckman Instruments•Coulter), which are the standard particles in a known number, as the internal standard. Taking the lymphocyte count of the vehicle group as 100%, the dose necessary for decreasing the lymphocyte count thereof to 50% was calculated and taken as ED50 value (mg/kg body weight).

[2] = Action on heart rate in rat telemetry; type: in vivo, male Sprague-Dawley (IGS) rats; settings: oral administration in 0.5% hydroxypropylmethylcellulose, up to the dose of 10 mg/kg body weight, heart rate measured from 24 hr before to 72 hr after administration
Method: Action on Heart Rate in Rat Telemetry
Male Sprague-Dawley (IGS) rats were anesthetized by intraperitoneal administration of Nembutal (manufactured by DAINIPPON PHARMACEUTICAL CO., LTD.), and a pressure sensor connected to a telemetric transmitter (TL11M2-C50-PTX, manufactured by Data Sciences International) was inserted into the abdominal artery, whereby the transmitter was subcutaneously set in the abdomen. The data of blood pressure and heart rate were recorded by an analysis software (Dataquest A.R.T., Data Sciences International) via a receiver (RPC-1, manufactured by Data Sciences International). After confirmation of the recovery of the circadian rhythm of the heart rate after elapse of 10 days to 2 weeks postoperation, the rats were subjected to the experiment. The compound of the present invention was suspended in 0.5% hydroxypropylmethylcellulose (manufactured by Shin-Etsu Chemical Co., Ltd.) and administered orally. The heart rate was measured from 24 hr before administration to 72 hr after administration.

Structure (SMILES)	mouse peripheral blood lymphocyte count-decreasing effect, ED50 value (dose necessary for decreasing the lymphocyte count to 50% of vehicle group) [1]	influence on heart rate in rats (telemetry) [2]
Cc1ccc(Sc2ccc(-c3ccc(CCC(N)(CO)CO)c(Cl)c3)c(F)c2)cc1 [Example 18, 2-amino-2-{2-[3-chloro-2′-fluoro-4′-(4-methylphenylthio)biphenyl-4-yl]ethyl}propane-1,3-diol]	0.04 mg/kg body weight	–
Cc1ccc(Sc2ccc(-c3ccc(CCC(N)(CO)CO)cc3)c(F)c2)cc1 [Example 4, 2-amino-2-{2-[2′-fluoro-4′-(4-methylphenylthio)biphenyl-4-yl]ethyl}propane-1,3-diol]	0.05 mg/kg body weight	did not influence the heart rate
